Reference: patent publication EP4691485A1, “MUCOSAL ADJUVANT” (priority 2023, dated 2024)

Key:
Assay type in all cases: in vivo, BALB/c mice
[1] = tested on: Influenza HA protein antigen (A/California/7/2009(H1N1)pdm); assay: ELISA of antigen-specific IgA and IgG after nasal vaccination with CL401, CL413 or CL531 (Example 2); details: 1 µg HA alone or with 0.662 nmol or 6.62 nmol test compound
[2] = tested on: HA antigen (A/Singapore/GP1908/2015(IVR-180)(H1N1)pdm09); assay: ELISA of antigen-specific IgA and IgG after nasal vaccination (Example 1); details: HA 0.1 µg alone or with 3 µg adjuvant, twice; for antigen-specific IgA level in the nasal lavage fluid: day 38, 2^2-fold dilution, Fig. 2; for antigen-specific IgG level in serum: day 38, 2^12-fold dilution, Fig. 3
[3] = tested on: influenza virus (A/Singapore/GP1908/2015(IVR-180)(H1N1)pdm09); details: HA 0.1 µg alone or with 3 µg adjuvant, twice, 3-week interval, sampled day 38, Fig. 1
[4] = tested on: A/Singapore/GP1908/2015(IVR-180)(H1N1)pdm09; details: HA 0.1 µg alone or with 3 µg adjuvant, nasal, twice; for Serum HI antibody titers, Geometric Mean Titer (GMT): 3-week interval, serum day 38
[5] = tested on: Influenza virus HA protein antigen A/Guangdong-Maonan/SWL1536/2019(CNIC-1909)(H1N1); assay: ELISA of antigen-specific IgA and IgG, improved formulation with chondroitin sulfate sodium (Example 4); details: Fig. 7
Method: For the nasal administration test, 7-week-old female BALB/c mice were used, with 8 mice per group. Influenza virus HA protein antigen A/Guangdong-Maonan/SWL1536/2019(CNIC-1909)(H1N1) (Research Foundation for Microbial Diseases of Osaka University) was used. Vaccine groups included HA 0.1 µg alone, or HA 0.1 µg with 0.1 µg of TY001 S-form as adjuvant, and groups with/without 0.01% chondroitin sulfate sodium as an additive.
The vaccine solution was administered intranasally to mice at 5 µL per nostril (10 µL/mouse) twice, with a 3-week interval. Two weeks after the second administration (day 35), nasal lavage fluid and serum were collected, and antigen-specific IgA levels in nasal lavage fluid and IgG levels in serum were measured by ELISA.

[6] = tested on: Influenza virus HA protein antigen: A/Guangdong-Maonan/SWL1536/2019(CNIC-1909)(H1N1); assay: ELISA of antigen-specific IgA and IgG after vaccination and virus challenge (Example 5); details: twice, HA 0.1 µg alone or with TY001 S-form 0.01-0.3 µg and 0.01% chondroitin sulfate sodium
Method: (§1) For the nasal administration test, 7-week-old female BALB/c mice (9-10 mice per group) were used. Influenza virus HA protein antigen: A/Guangdong-Maonan/SWL1536/2019(CNIC-1909)(H1N1) and influenza virus: A/Guangdong-Maonan/SWL1536/2019(CNIC-1909)(H1N1) (Osaka University Microbial Disease Research Institute) were used. The vaccine formulations included HA 0.1 µg alone, and a formulation containing HA 0.1 µg co-administered with TY001 S-form at doses of 0.01-0.3 µg, and 0.01% chondroitin sulfate sodium as an additive. Vaccine solutions were administered into the nasal cavity, 5 µL into each nostril (10 µL/mouse), twice at a 3-week interval. As a control, a group subcutaneously administered with HA 0.1 µg alone was set up. Two weeks after the second administration (day 35), viral fluid was administered at 2 µL into each nostril (1x10^5 TCID50/mouse). Three days later (day 38), nasal wash fluid and serum were collected. The viral titer in the nasal wash fluid, antigen-specific IgA in nasal wash fluid, and IgG in serum were measured by ELISA.

[7] = tested on: SARS-CoV-2 S protein; assay: ELISA of antigen-specific IgA and IgG after nasal vaccination with SARS-CoV-2 antigen (Example 3); details: 3 µg S protein alone or with 0.3 µg TY001 S-form
[8] = tested on: Influenza virus HA protein antigen: A/Guangdong-Maonan/SWL1536/2019(CNIC-1909)(H1N1); assay: Comparative test with various adjuvants: ELISA of antigen-specific IgA and IgG (Example 6); details: HA 0.1 µg + 1 µg TY001 S-form (0.01% chondroitin sulfate sodium), twice
Method: For the nasal administration test, 8-week-old female BALB/c mice (6 mice per group) were used. Influenza virus HA protein antigen: A/Guangdong-Maonan/SWL1536/2019(CNIC-1909)(H1N1) (Osaka University Microbial Disease Research Institute) was used. Vaccine formulations included HA 0.1 µg alone, and those co-administered intranasally with 1 µg of TY001 S-form (formulation containing 0.01% chondroitin sulfate sodium as an additive), Cholera Toxin B subunit (CTB) (Fujifilm Wako Pure Chemical Corporation), CpG ODN (ODN 1826) (InvivoGen), or Polyinosinic-polycytidylic acid (Poly(I:C)) (InvivoGen). Each vaccine solution was administered into the nasal cavity, 5 µL into each nostril (10 µL/mouse), twice at a 3-week interval. A group subcutaneously administered with HA 0.1 µg + Alum 2 mg was also used. Two weeks after the second administration (day 35), nasal wash fluid, bronchoalveolar lavage fluid, and serum were collected. Antigen-specific IgA in nasal wash fluid and bronchoalveolar lavage fluid, and IgG in serum and bronchoalveolar lavage fluid were measured by ELISA.

[9] = tested on: influenza virus: A/Guangdong-Maonan/SWL1536/2019(CNIC-1909)(H1N1); assay: Infection protection test: viral titer in nasal wash fluid (Example 5)
Method: as §1

[10] = HA 0.1 µg + 0.1 µg TY001 S-form + 0.01% chondroitin sulfate sodium, compared with no additive
[11] = HA 0.1 µg + 0.1 µg TY001 S-form, nasal, twice, 3-week interval, day 35

SMILES: CCCCCCCCCCCCCCCC(=O)OCC(CSC[C@H](N)C(=O)Nc1ccc(Cn2c(O)nc3c(N)nc(NCCCC)nc32)cc1)OC(=O)CCCCCCCCCCCCCCC (some centres unmarked) [CL401]
- antigen-specific IgG antibodies in plasma ([1]; day 0 and day 14, day 27, rank order, Fig. 4 lower panel): CL413 > CL531 > CL401
- antigen-specific IgA in nasal lavage fluid ([1]; day 0 and day 14, day 28, rank order, Fig. 4 upper panel): CL413 > CL531 > CL401

SMILES: CCCCCCCCCCCCCCCC(=O)OC[C@H](CSC[C@H](N)C(=O)NCCCNCCCCNCCCNC(=O)CNC(=O)c1ccc(Cn2c(O)nc3c(N)nc(NCCCC)nc32)cc1)OC(=O)CCCCCCCCCCCCCCC [TY001 R-form, (20R,24R)-20-amino-1-(4-((6-amino-2-(butylamino)-8-hydroxy-9H-purin-9-yl)methyl)phenyl)-1,4,19-trioxo-22-thia-2,5,9,14,18-pentaazapentacosane-24,25-diyl dipalmitate]
- antigen-specific IgA level in the nasal lavage fluid [2]: showed induction of antigen-specific IgA antibodies in the nasal cavity
- antigen-specific IgG level in serum [2]: showed an increase
- viral titer in the nasal lavage fluid [3]: showed suppression of viral infection
- HI antibody titer in serum [4]: showed an increase
- Serum HI antibody titers, Geometric Mean Titer (GMT) [4]: 69.6

SMILES: CCCCCCCCCCCCCCCC(=O)OC[C@@H](CSC[C@H](N)C(=O)NCCCNCCCCNCCCNC(=O)CNC(=O)c1ccc(Cn2c(O)nc3c(N)nc(NCCCC)nc32)cc1)OC(=O)CCCCCCCCCCCCCCC [TY001 S-form, (20R,24S)-20-amino-1-(4-((6-amino-2-(butylamino)-8-hydroxy-9H-purin-9-yl)methyl)phenyl)-1,4,19-trioxo-22-thia-2,5,9,14,18-pentaazapentacosane-24,25-diyl dipalmitate]
- antibody-inducing effect, IgA in nasal wash fluid [5, 10]: stronger
- antibody-inducing effect, IgG in serum [5, 10]: stronger
- antigen-specific IgA in nasal wash fluid [5, 11]: induced
- antigen-specific IgG in serum [5, 11]: induced
- antigen-specific IgG in serum ([6]; nasal, day 38, Fig. 9): dose-dependent induction of nasal IgA and serum IgG
- antigen-specific IgA in nasal wash fluid ([6]; day 38, Fig. 9): dose-dependent induction of nasal IgA and serum IgG
- antigen-specific IgA level in the nasal lavage fluid [2]: showed induction of antigen-specific IgA antibodies in the nasal cavity
- antigen-specific IgG level in serum [2]: showed an increase
- viral titer in the nasal lavage fluid [3]: showed suppression of viral infection
- antigen-specific IgA level in the nasal lavage fluid ([7]; day 0 and 21, day 35, 2^3-fold dilution, Fig. 5): showed induction of antigen-specific IgA antibodies in the nasal cavity
- antigen-specific IgG level in serum ([7]; day 0 and 21, day 35, 2^8-fold dilution, Fig. 6): showed an increase in antigen-specific IgG antibodies
- HI antibody titer in serum [4]: showed an increase
- Serum HI antibody titers, Geometric Mean Titer (GMT) [4]: 85.7
- antigen-specific IgA in bronchoalveolar lavage fluid ([8]; nasal, day 35, Fig. 10): also induced
- antigen-specific IgG in bronchoalveolar lavage fluid ([8]; nasal, day 35, Fig. 10): also induced
- antibody-inducing ability (antigen-specific IgA in nasal wash fluid and bronchoalveolar lavage fluid, IgG in serum and bronchoalveolar lavage fluid) ([8]; compared with CTB, CpG ODN (ODN 1826), Poly(I:C) nasal and Alum 2 mg subcutaneous, day 35, Fig. 10): stronger antibody-inducing ability at a lower dose compared to any other adjuvant
- viral titer in nasal wash fluid ([9]; HA 0.1 µg + TY001 S-form 0.1 µg + 0.01% chondroitin sulfate sodium, Fig. 8): no virus detected in any individual
- viral titer in nasal wash fluid ([9]; HA 0.1 µg + TY001 S-form 0.3 µg + 0.01% chondroitin sulfate sodium, Fig. 8): no virus detected in any individual
- viral titer in nasal wash fluid ([9]; twice, HA 0.1 µg alone or with TY001 S-form 0.01-0.3 µg and 0.01% chondroitin sulfate sodium, virus 1x10^5 TCID50/mouse day 35, day 38, Fig. 8): dose-dependent inhibition of viral infection
